# Data as given in paper PMC3517777, “Phase I study of TP300 in patients with advanced solid tumors with pharmacokinetic, pharmacogenetic and pharmacodynamic analyses” (BMC Cancer, 2012).
# Experiments:
# [1] = set-up: method as in PMID 10873073; details: irinotecan 350 mg/m^2, 3-weekly dosing regimen; cited from earlier work
# [2] = Plasma and urine pharmacokinetics after TP300 infusion (LC-MS/MS, non-compartmental); type: in vivo, human; details: for fe (urinary excretion ratio): urine up to 48 hours, mean
# Procedure: Venous blood (3 mL) was taken into sodium heparin tubes containing 30 μL of 46% citric acid, centrifuged 1500g at 4°C for 10 min and 1 mol/L hydrochloric acid was added (1:10) to plasma from each subject at 10 time points during cycle 1 (pre dose, then 1, 1.25, 1.5, 2, 3, 5, 8, 24, 48 hours after the start of administration) and stored at −70°C. Samples were processed by extraction of protein using addition of organic solvent containing internal standards and assayed by LC-MS/MS with a robust, sensitive and validated method for the simultaneous determination of a novel topoisomerase 1 inhibitor CH0793076 (TP3076), the prodrug CH4556300 (TP300), and the active metabolite CH0793011 (TP3011). All plasma had been acidified during collection to avoid the pH-based degradation of TP300 and to shift the equilibria of TP3076 and TP3011 between the lactone and carboxylate forms towards the lactone forms. After the plasma proteins were precipitated with methanol:acetonitrile:HCl 1M (50:50:1, v:v:v) containing stable isotopic internal standards, the analytes were trapped on an Xterra MS C18 column (10×2.1 mm i.d., 5 μm) and separated on a Gemini C18 column (50×2.0 mm i.d., 5 μm) using column-switching liquid chromatography. Electrospray ionization in the positive-ion mode and multiple reaction monitoring were used to quantify the analytes with transitions m/z 587.2>441.2 for TP300, 459.1>415.2 for 3076, and 475.1>361.1 for 3011. The inter- and intra-day precisions were below 12%, and the accuracy was between −16% and 16% at the lower limit of quantitation (LLOQ) and between −11% and 14% at the other quality controls. The LLOQs of TP300, TP3076, and TP3011 were 0.8, 0.04, and 0.04 ng/mL, respectively.
# Pharmacokinetic parameters derived from plasma concentration-time data of TP3076 or TP3011 by non-compartmental methods using WinNonlin (version 5.1; Pharsight Corp), included maximal plasma concentration (Cmax) and time of Cmax (Tmax), apparent plasma elimination half-life (t1/2), and the area under the curve (AUC). The urinary excretion ratio (fe) of TP3076 and TP3011 was calculated from the urinary concentration and volume up to 48 hours after administration, and the administration dose. The linearity of Cmax and AUC was determined with linear regression, analysis of variance and power model analysis. The sum of the AUCs of TP3076 and TP3011 was plotted against percentage (%) fall in nadir neutrophil count to explore the relationship between exposure and myelosuppression as a measure of anti-proliferative effect and a sigmoid Emax model fitted to the data: […]
# [3] = test system: AOX1; details: human, in vivo
# Procedure: (§1) Blood samples for pharmacogenomic analysis were collected and all samples anonymised for subsequent storage, assay and analysis. The impact on Cmax and AUC of genetic polymorphisms of CYP2D6, which is assumed to make some contribution to the hydroxylation of TP3076, but not TP3011, AOX1, which metabolises TP3076 to TP3011, and UGT1A1, which metabolises SN-38 to its glucuronide, but is not believed to influence TP300 metabolism were explored. The analysis was performed with the invader method or polymerase chain reaction (PCR)-invader method for single nucleotide polymorphisms (SNPs) of CYP2D6 and UGT1A1 *28 and with the long-PCR method for deletion of CYP2D6 and UGT1A1 gene. AOX1 SNPs were analysed by a direct sequencing method. Genomic DNAs were extracted from frozen peripheral blood of 31 subjects using an automated DNA extractor BioRobotMDx and commercial DNA purification kits (Qiagen). Quality and quantity of the DNAs were checked by the measurement of absorbencies at 260 nm and 280 nm. Primers were designed to amplify all the 35 exons of Aldehyde oxidese 1 gene (NCBI accession No. NM_001159) including some intronic flanking regions. The specificity of PCR conditions was confirmed by the agarose gel electrophoresis. Amplicons were prepared twice for every exons. The amplicons were subsequently treated with ExoSAP-IT (GE Healthcare) followed by the reactions with a cycle sequencing kit (BigDye Terminator v3.1, Applied Biosystems). The fragments obtained were purified using X-Terninator purification kit (Applied Biosystems) and analysed on an automated DNA sequencer (3730xl DNA Analyzer, Applied Biosystems). The resulted sequences were compared against the reference sequence using the variant reporter software (Applied Biosystems).
# [4] = test system: UGT1A1; details: human, in vivo
# Procedure: as §1
# [5] = test system: CYP2D6; set-up: species or system human; details: in vivo
# Procedure: as §1, with “The specificity of PCR conditions was confirmed by the agarose gel electrophoresis. Amplicons were prepared twice for every exons. The amplicons were subsequently treated with ExoSAP-IT (GE Healthcare) followed by the reactions with a cycle sequencing kit (BigDye Terminator v3.1, Applied Biosystems).” left out, “The resulted sequences were compared against the reference sequence using the variant reporter software (Applied Biosystems).” left out
# [6] = test system: Topo-1; set-up: method as in PMID 19495753; details: cited from earlier work
# [7] = test system: HCT-116 colorectal cancer cells; set-up: method as in PMID 19254843; details: HCT-116 colorectal cancer cells in vitro; cited from earlier work
# [8] = TP300 1 mg/m^2 1-hour i.v. infusion, N=3
# [9] = TP300 2 mg/m^2 1-hour i.v. infusion, N=3
# [10] = TP300 4 mg/m^2 1-hour i.v. infusion, N=3
# [11] = TP300 6 mg/m^2 1-hour i.v. infusion, N=3
# [12] = TP300 8 mg/m^2 1-hour i.v. infusion, N=3
# [13] = TP300 10 mg/m^2 1-hour i.v. infusion, N=12
# [14] = TP300 12 mg/m^2 1-hour i.v. infusion, N=4
smiles,measurement,setting,value
CCc1c2c(nc3ccc(O)cc13)-c1cc3c(c(=O)n1C2)COC(=O)[C@]3(O)CC [SN-38],AUC of SN-38 at which DLTs occur,[1],1.5 µM·h
CCCCCN1C=Nc2cccc3nc4c(c1c23)Cn1c-4cc2c(c1=O)COC(=O)[C@]2(O)CC [TP3076],fe (urinary excretion ratio),[2]; [8],2.45%
same,fe (urinary excretion ratio),[2]; [9],2.87%
same,fe (urinary excretion ratio),[2]; [10],1.31%
same,fe (urinary excretion ratio),[2]; [11],1.78%
same,fe (urinary excretion ratio),[2]; [12],1.71%
same,fe (urinary excretion ratio),[2]; [13],3.09%
same,fe (urinary excretion ratio),[2]; [14],6.33%
same,Urinary excretion ratios,"[2]; human, in vivo",at most 6%
same,dose dependence of Cmax and AUC,"[2]; human, in vivo",increased proportionately
same,Tmax,"[2]; human, in vivo, Tmax",1 h
same,Tmax,"[2]; human, in vivo, iv, tmax",1.26 h
same,Glucuronidated TP3076 (detection),[2]; in vivo,not detected
same,"difference of exposure (Cmax, AUC) among AOX1 (c3404A > G) genotypes",[3],no apparent significant difference
same,"difference in exposure (Cmax, AUC) among UGT1A1*28 genotypes",[4],no apparent significant difference
same,exposure in CYP2D6 extensive metabolisers,[5],slight reduction
same,Topo-1 inhibition relative to SN38,[6],equipotent
same,IC50,[7],sub-nanomolar range
CCCCCN1C(=O)Nc2cccc3nc4c(c1c23)Cn1c-4cc2c(c1=O)COC(=O)[C@]2(O)CC [TP3011],fe (urinary excretion ratio),[2]; [8],0.792%
same,fe (urinary excretion ratio),[2]; [9],0.739%
same,fe (urinary excretion ratio),[2]; [10],0.796%
same,fe (urinary excretion ratio),[2]; [11],0.593%
same,fe (urinary excretion ratio),[2]; [12],0.594%
same,fe (urinary excretion ratio),[2]; [13],1.10%
same,fe (urinary excretion ratio),[2]; [14],1.99%
same,Urinary excretion ratios,"[2]; human, in vivo",at most 6%
same,dose dependence of Cmax and AUC,"[2]; human, in vivo",increased proportionately
same,Tmax,"[2]; human, in vivo, Tmax",3 to 5 h
same,half-life,"[2]; human, in vivo, iv, t1/2",6.92 h
same,"difference of exposure (Cmax, AUC) among AOX1 (c3404A > G) genotypes",[3],no apparent significant difference
same,"difference in exposure (Cmax, AUC) among UGT1A1*28 genotypes",[4],no apparent significant difference
same,exposure in CYP2D6 extensive metabolisers,[5],slight decrease
same,Topo-1 inhibition relative to SN38,[6],equipotent
same,IC50,[7],sub-nanomolar range
